In patent publication US20250059207A1, “6,6-FUSED HETEROCYCLIC COMPOUNDS AS METTL3 INHIBITORS” (858 Therapeutics, Inc., priority 2021, published 2025):

Test system: MOLM-13 cells
Assay: Viability assay in MOLM-13 cells (CellTiter-Glo 2.0)
Format: cell-based, human
Details: Homo sapiens, MOLM-13, 72 h, read-out: MOLM-13 IC50 (cell viability)

`COCCNc1ccnc(NCc2ccc3nc(Cn4ccc5c(-c6ccccc6)cncc5c4=O)cn3c2)c1` [Compound 99, 2-((6-(((4-((2-methoxyethyl)amino)pyridin-2-yl)amino)methyl)imidazo[1,2-a]pyridin-2-yl)methyl)-5-phenyl-2,7-naphthyridin-1(2H)-one] showed an IC50 of over 10 µM.

Same assay, conditions: MOLM-13 human AML cells, 72 hours, CellTiter-Glo 2.0; read-out: MOLM-13 IC50 (cell viability)

`O=c1c2cncc(N3CCC4(C3)CC(F)(F)C4)c2ccn1Cc1cn2cc(CNCC3CC(F)C3)ccc2n1` (stereo not shown) [Compound 147, 5-{2,2-difluoro-6-azaspiro[3.4]octan-6-yl}-2-{[6-({[(3-fluorocyclobutyl)methyl]amino}methyl)imidazo[1,2-a]pyridin-2-yl]methyl}-1,2-dihydro-2,7-naphthyridin-1-one] and `O=c1c2cncc(N3CC4(C3)CC(F)(F)C4)c2ccn1Cc1cn2cc(CNCC3CC(F)C3)ccc2n1` (stereo not shown) [Compound 142, 5-{6,6-difluoro-2-azaspiro[3.3]heptan-2-yl}-2-{[6-({[(3-fluorocyclobutyl)methyl]amino}methyl)imidazo[1,2-a]pyridin-2-yl]methyl}-1,2-dihydro-2,7-naphthyridin-1-one] fall in the same range of IC50: 1 to 10 µM for the first, 1 to 10 µM for the second.

Compared with `O=c1c2cncc(-c3ccccc3)c2ccn1Cc1cn2cc(CNCC3(F)CCC3)ccc2n1` [Compound 75, 2-((6-((((1-fluorocyclobutyl)methyl)amino)methyl)imidazo[1,2-a]pyridin-2-yl)methyl)-5-phenyl-2,7-naphthyridin-1(2H)-one], `O=c1c2cncc(-c3ccccc3)c2ccn1Cc1cn2cc(CNCC3CCCCC3)ccc2n1` [Compound 77, 2-((6-(((cyclohexylmethyl)amino)methyl)imidazo[1,2-a]pyridin-2-yl)methyl)-5-phenyl-2,7-naphthyridin-1(2H)-one] is lower in IC50: over 10 µM for the first, 1 to 10 µM for the second.

Compared with `CN(C)CC1CN(c2cncc3c(=O)n(Cc4cn5cc(CN6CCC(C)(C)CC6)ccc5n4)ccc23)C1` [Compound 125, 5-{3-[(dimethylamino)methyl]azetidin-1-yl}-2-({6-[(4,4-dimethylpiperidin-1-yl)methyl]imidazo[1,2-a]pyridin-2-yl}methyl)-1,2-dihydro-2,7-naphthyridin-1-one], `CC1(C)CCN(Cc2ccc3nc(Cn4ccc5c(N6CCOCC6)cncc5c4=O)cn3c2)CC1` [Compound 113, 2-({6-[(4,4-dimethylpiperidin-1-yl)methyl]imidazo[1,2-a]pyridin-2-yl}methyl)-5-(morpholin-4-yl)-1,2-dihydro-2,7-naphthyridin-1-one] is lower in IC50: over 10 µM for the first, 1 to 10 µM for the second. The second is the more potent here.

`O=c1c2cncc(N3CC4(COC4)C3)c2cnn1Cc1cn2cc(CNCC34CC(F)(C3)C4)ccc2n1` [Compound 157, 3-[(6-{[({3-fluorobicyclo[1.1.1]pentan-1-yl}methyl)amino]methyl}imidazo[1,2-a]pyridin-2-yl)methyl]-8-{2-oxa-6-azaspiro[3.3]heptan-6-yl}pyrido[3,4-d]pyridazin-4-one] and `O=c1c2cncc(N3CC4(CCOCC4)C3)c2ccn1Cc1cn2cc(CN3CC4(CC(F)C4)C3)ccc2n1` [Compound 136, 2-{[6-({6-fluoro-2-azaspiro[3.3]heptan-2-yl}methyl)imidazo[1,2-a]pyridin-2-yl]methyl}-5-{7-oxa-2-azaspiro[3.5]nonan-2-yl}-1,2-dihydro-2,7-naphthyridin-1-one] fall in the same range of IC50: 1 to 10 µM for the first, 1 to 10 µM for the second.

`O=c1c2cncc(-c3ccccc3)c2ccn1Cc1cn2cc(CNCc3ccccc3)ccc2n1` [Compound 72, 2-((6-((benzylamino)methyl)imidazo[1,2-a]pyridin-2-yl)methyl)-5-phenyl-2,7-naphthyridin-1(2H)-one] and `O=c1c2cncc(-c3ccccc3)c2ccn1Cc1cn2cc(CNC(CO)c3ccccc3)ccc2n1` (stereo not shown) [Compound 82, 2-((6-(((2-hydroxy-1-phenylethyl)amino)methyl)imidazo[1,2-a]pyridin-2-yl)methyl)-5-phenyl-2,7-naphthyridin-1(2H)-one] fall in the same range of IC50: 1 to 10 µM for the first, 1 to 10 µM for the second.

`O=c1c2cncc(N3CC4(CCOCC4)C3)c2ccn1Cc1cn2cc(CN3CCC(C(F)(F)F)CC3)ccc2n1` [Compound 132, 5-{7-oxa-2-azaspiro[3.5]nonan-2-yl}-2-[(6-{[4-(trifluoromethyl)piperidin-1-yl]methyl}imidazo[1,2-a]pyridin-2-yl)methyl]-1,2-dihydro-2,7-naphthyridin-1-one] and `O=c1c2cncc(N3CC4(CCOCC4)C3)c2ccn1Cc1cn2cc(CN3CC4(CCC4)C3)ccc2n1` [Compound 128, 2-{[6-({2-azaspiro[3.3]heptan-2-yl}methyl)imidazo[1,2-a]pyridin-2-yl]methyl}-5-{7-oxa-2-azaspiro[3.5]nonan-2-yl}-1,2-dihydro-2,7-naphthyridin-1-one] fall in the same range of IC50: 1 to 10 µM for the first, 1 to 10 µM for the second.

`O=c1c2cncc(-c3ccccc3)c2ccn1Cc1cn2cc(CNC3(c4ccccc4)CCC3)ccc2n1` [Compound 80, 5-phenyl-2-((6-(((1-phenylcyclobutyl)amino)methyl)imidazo[1,2-a]pyridin-2-yl)methyl)-2,7-naphthyridin-1(2H)-one] and `O=c1c2cncc(-c3ccccc3)c2ccn1Cc1cn2cc(CNc3cc(N4CCOCC4)ccn3)ccc2n1` [Compound 102, 2-{[6-({[4-(morpholin-4-yl)pyridin-2-yl]amino}methyl)imidazo[1,2-a]pyridin-2-yl]methyl}-5-phenyl-1,2-dihydro-2,7-naphthyridin-1-one] fall in the same range of IC50: 1 to 10 µM for the first, 1 to 10 µM for the second.

`O=c1c2cncc(N3CCC3)c2ccn1Cc1cn2cc(CNCC3CC(F)C3)ccc2n1` (stereo not shown) [Compound 89, 5-(azetidin-1-yl)-2-((6-((((3-fluorocyclobutyl)methyl)-amino)methyl)imidazo[1,2-a]pyridin-2-yl)methyl)-2,7-naphthyridin-1(2H)-one] and `O=c1c2cncc(N3CC(N4CCC(F)CC4)C3)c2ccn1Cc1cn2cc(CNCC3CC(F)C3)ccc2n1` (stereo not shown) [Compound 148, 2-{[6-({[(3-fluorocyclobutyl)methyl]amino}methyl)imidazo[1,2-a]pyridin-2-yl]methyl}-5-[3-(4-fluoropiperidin-1-yl)azetidin-1-yl]-1,2-dihydro-2,7-naphthyridin-1-one] fall in the same range of IC50: 1 to 10 µM for the first, 1 to 10 µM for the second.

First: O=c1c2cncc(N3CC(c4ccncc4)C3)c2ccn1Cc1cn2cc(CNCC3CC(F)C3)ccc2n1 (stereo not shown) [Compound 149, 2-{[6-({[(3-fluorocyclobutyl)methyl]amino}methyl)imidazo[1,2-a]pyridin-2-yl]methyl}-5-[3-(pyridin-4-yl)azetidin-1-yl]-1,2-dihyro-2,7-naphthyridin-1-one]
Second: O=c1c2cnccc2ccn1Cc1cn2cc(CNCC3CCCCC3)ccc2n1 [Compound 71, 2-((6-(((cyclohexylmethyl)amino)methyl)imidazo[1,2-a]pyridin-2-yl)methyl)-2,7-naphthyridin-1(2H)-one]
The IC50 of the first is lower: 1 to 10 µM for the first, over 10 µM for the second.

First: CNc1ccc2ccc(-c3ccc(Cn4ccc5c(-c6ccccc6)cncc5c4=O)cc3)cc2n1 [Compound 94, 2-(4-(2-(methylamino)quinolin-7-yl)benzyl)-5-phenyl-2,7-naphthyridin-1(2H)-one]
Second: Cc1ccc2nc(Cn3ccc4c(-c5cc[nH]n5)cncc4c3=O)cn2c1 [Compound 15, 2-((6-methylimidazo[1,2-a]pyridin-2-yl)methyl)-5-(1H-pyrazol-3-yl)-2,7-naphthyridin-1(2H)-one]
The IC50 of the first is lower: 1 to 10 µM for the first, over 10 µM for the second. The first is the more potent here.

Compound `CC1(C)CCN(Cc2ccc3nc(Cn4ccc5c(C#Cc6ccncc6)cncc5c4=O)cn3c2)CC1` [Compound 124, 2-((6-((4,4-dimethylpiperidin-1-yl)methyl)imidazo[1,2-a]pyridin-2-yl)methyl)-5-(pyridin-4-ylethynyl)-2,7-naphthyridin-1(2H)-one] has an IC50 of over 10 µM.
